The source of these data is patent publication US6593329B1, “Method for the treatment or prevention of coronary graft vasospasm” (Orion Corporation, priority 1999, dated 2003).

Several values for one entry are separate records, joined by “and”; a condition that tells them apart may be missing. Identical values can stand only once.

This test relates to human internal mammary artery (IMA) preparations. In words: Prevention of noradrenaline-induced vasospasm in isolated human internal mammary artery rings (isolated ring technique). The format is cell-based. The settings on record: for Prevention (%) of graft vasospasm (as % of maximal attainable spasm): IMA rings contracted with noradrenaline 1-10 μM, per patient and mean. As for the experimental part:
The effect of levosimendan to prevent vasospasm was investigated in human internal mammary artery (IMA) preparations from coronary by-pass surgery (8 patients) at three different levels of vascular tone using isolated ring technique. It is known that IMA may produce spasm during and after graft surgery especially at low perfusion pressure (at or lower than 50 mmHg).
Isometric stretch was applied perpendicular to the direction of blood flow for 45 min in organ bath containing oxygenated Krebs-Henseleit solution (37° C., pH 7.4). Magnitude of stretch (in mN) was converted into quasi-equivalent pressure values (23, 46 and 92 mmHg) according to the Laplace law. Isolated IMA rings were contracted with noradrenaline (1-10 μM), and at the steady state contraction, levosimendan (0.3 and 0.6 μM) was added cumulatively.

Regarding `CC1CC(=O)NN=C1c1ccc(NN=C(C#N)C#N)cc1` (single isomer, unassigned; (-)) [Levosimendan, (−)-[[4-(1,4,5,6-tetrahydro-4-methyl-6-oxo-3-pyridazinyl)phenyl]hydrazono]propanedinitrile], the “Prevention (%) of graft vasospasm (as % of maximal attainable spasm)” value reads like this: (23 mmHg transmural pressure, levosimendan 0.3 μM) 46.1% and 27.2% and 37.5% and 60.0% and 46.7% and 40.0%; (23 mmHg transmural pressure, levosimendan 0.6 μM) 76.9% and 125.0% and 45.5% and 62.5% and 0% and 110.0% and 113.3% and 113.0%; (46 mmHg transmural pressure, levosimendan 0.3 μM) 28.6% and 75.0% and 13.8% and 8.3% and 57.1% and 16.2% and 37.8% and 17.3%; (46 mmHg transmural pressure, levosimendan 0.6 μM) 85.7% and 100.0% and 41.4% and 27.1% and 114.3% and 21.6% and 78.4% and 57.7%; (92 mmHg transmural pressure, levosimendan 0.3 μM) 16.6% and 0% and 3.9% and 8.2% and 9.6%; (92 mmHg transmural pressure, levosimendan 0.6 μM) 61.6% and 22.0% and 14.9% and 34.7% and 26.7%. Moreover, the “Prevention of graft vasospasm (result in words)” value (clinically relevant submicromolar concentrations, in particular at low perfusion pressure values) was “prevents graft vasospasm”.
